Measurements taken from the METLIN SMRT retention time set (Domingo-Almenara et al. 2019).

Assay: gradient 5% acetonitrile 3 min, to 50% in 2 min, to 85% in 15 min, held 3 min, 100 µL/min
Conditions: column: Zorbax Extend-C18 2.1 x 50 mm; eluents: water / acetonitrile, 0.1% formic acid
Outline: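 Pure standards were run in mixtures of ~100 molecules by HPLC coupled to a quadrupole time-of-flight mass spectrometer. The column was a Zorbax Extend-C18 (2.1 × 50 mm, 1.8 μm) at 100 μL/min, with water and acetonitrile each containing 0.1% formic acid, in positive and negative ionization mode. Dead and dwell volumes were 40 μL and 900 μL. Retention time was taken from computationally picked adduct peaks, each manually inspected, with data collected over 3 months.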

Compound | RP-LC retention time
CN(C)C(=O)c1ccc2c(c1)N(CC(=O)Nc1ccc(F)cc1)C(=O)CS2 | 704 s
CCCNC(=O)c1ccc2nc(CCc3ccc(NC(=O)CC)cc3)[nH]c2c1 | 608 s
O=C([C@@H]1C[C@H](F)CN1C(=O)NCc1ccc(OC(F)(F)F)cc1)N1CCCCC1 | 809 s
Nc1cc(C2CCN(C(=O)Cc3ccccc3F)CC2)no1 | 676 s
CS(=O)(=O)N1C[C@H]2CCN(Cc3cn[nH]c3-c3ccccc3)C[C@H]21 | 574 s
O=c1n(Cc2ccccc2Cl)nc2n1CCCCC2 | 768 s
Cc1cccc(-c2nnc(-c3ccc(Cl)c(S(=O)(=O)N4CCOCC4)c3)o2)c1 | 1020 s
CCCS(=O)(=O)N1CC[C@@H]2CN(Cc3ccccc3)[C@@H]2C1 | 607 s
O=C(Cn1c(=O)c(S(=O)(=O)c2ccccc2)cc2ccccc21)N1CCCC1 | 757 s
CN(CCCNC(=O)C1CCCN(c2nnc(-n3cccc3)s2)C1)C1CCCCC1 (configuration not stated) | 653 s
O=C1COc2cc(S(=O)(=O)N3CCCC3C(=O)NCc3ccc4c(c3)OCO4)c(Cl)cc2N1 (configuration not stated) | 725 s
Cc1cc(C)cc(OCc2nc(CCN(C)C(=O)NCc3ccccc3)no2)c1 | 980 s
Cc1cccc(NC(=O)C2CCCCN2S(=O)(=O)c2cccs2)n1 (configuration not stated) | 807 s
COc1ccc(-c2nc(CNC(=O)Cn3cnc(-c4cccs4)cc3=O)cs2)cc1 | 746 s
COc1ccc(N2CC(c3noc(-c4cc(OC)cc(OC)c4)n3)CC2=O)cc1 (configuration not stated) | 959 s
COCc1nc(C2CCN(C(=O)c3ccco3)C2)no1 (configuration not stated) | 648 s
Cc1cc(-c2nnc(C3CCC3)o2)c(C)n1CC(=O)NCc1ccccc1C(F)(F)F | 960 s
COc1ccc(CCNC(=O)CN2C(=O)c3cccc4cccc(c34)C2=O)cc1OC | 725 s
CCc1ccccc1NC(=O)N1CCCC1c1nc(-c2ccc(OC)cc2)no1 (configuration not stated) | 976 s

Compound | RP-LC retention time
COCCC(=O)NCCC1CCN(C(=O)Nc2cc(F)cc(F)c2)CC1 | 695 s
Cc1ccccc1CNC(=O)Cn1nc(C(=O)N2CCCC2)c2ccccc21 | 799 s
Cc1ccc2c(c1)C(O)(CC(=O)c1cccc(Cl)c1)C(=O)N2 (configuration not stated) | 785 s
Cn1c(C(=O)N2CCN(c3ncccn3)CC2)cc2c(-c3cccs3)nn(-c3ccccc3)c21 | 1030 s
O=C(NCCC1CCN(C(=O)Nc2cc(F)ccc2F)CC1)C1CC1 | 715 s
CCN1C(=O)COc2ccc(-c3nc(NC(=O)c4ccco4)sc3C)cc21 | 883 s
O=C(NCC1CCCCC1)C1CCCN(c2nnc3ccc(Cl)cn23)C1 (configuration not stated) | 839 s
CCn1c(=O)c(C(=O)NCc2ccc(F)cc2F)nc2cccnc21 | 816 s
O=c1n(Cc2cccc(Cl)c2)nc2c(S(=O)(=O)N3CCCCC3)cccn12 | 935 s
Cc1ccc(C)c(S(=O)(=O)N2CCc3nc(-c4ccc(F)cc4)ncc3C2)c1 | 1200 s
CCOC(=O)Cc1csc(NC(=O)C2CCCN(c3ncnc4c3nc3n4CCCCC3)C2)n1 (configuration not stated) | 810 s
CC1CCN(c2ncc3c(n2)CCN(Cc2ccc(N(C)C)cc2)C3)CC1 | 757 s
Cc1ccc(C)c(NC(=O)N2CCc3nc(-c4ccccc4)ncc3C2)c1 | 924 s
CCC1CCCCN1C(=O)c1cnc2nc(C)ccc2c1Nc1cc(OC)cc(OC)c1 (configuration not stated) | 674 s
CC(C)NC(=O)N1CCNC(=O)C1 | 540 s
CCOc1ccccc1NC(=O)C1CN(S(C)(=O)=O)CC12CCCCC2 (configuration not stated) | 682 s
CC1CCN(CC2CCN(S(=O)(=O)c3ccccc3Cl)CC2)CC1 | 664 s
O=C(CN1C(=O)CC(c2ccccc2)S(=O)(=O)c2ccccc21)N1CCOCC1 (configuration not stated) | 704 s
